Measurements published in PubChem BioAssay (NCI).
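Following 48 hours of exposure in 96-well plates, responses at five concentrations were used to interpolate endpoints linearly. Here, GI50 denotes the concentration required for 50% inhibition of growth. TGI: total growth inhibition.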

Experiments:
Test in all cases: inhibition of tumour cell growth, NCI panel, 48 h
[1] = tested on: MCF7 breast
[2] = tested on: OVCAR-4 ovarian
[3] = tested on: SF-268 CNS
[4] = tested on: CAKI-1 renal
[5] = tested on: BT-549 breast
[6] = tested on: HOP-62 NSCLC
[7] = tested on: IGROV1 ovarian
[8] = tested on: LOX IMVI melanoma
[9] = tested on: KM12 colon
[10] = tested on: SF-295 CNS
[11] = tested on: NCI-H226 lung
[12] = tested on: HOP-92 NSCLC
[13] = tested on: U251 CNS
[14] = tested on: NCI/ADR-RES ovarian
[15] = tested on: PC-3 prostate
[16] = tested on: HL-60(TB) leukemia
[17] = tested on: EKVX NSCLC
[18] = tested on: MDA-MB-231 breast
[19] = tested on: HCT-116 colon
[20] = tested on: OVCAR-3 ovarian
[21] = tested on: SK-OV-3 ovarian
[22] = tested on: SK-MEL-5 melanoma
[23] = tested on: SNB-19 CNS
[24] = tested on: MOLT-4 leukemia
[25] = tested on: HCC-2998 colon
[26] = tested on: DU-145 prostate
[27] = tested on: SR leukemia
[28] = tested on: T-47D breast
[29] = tested on: OVCAR-8 ovarian
[30] = tested on: CCRF-CEM leukemia
[31] = tested on: SK-MEL-28 melanoma
[32] = tested on: HS 578T breast
[33] = tested on: SW-620 colon
[34] = tested on: UACC-62 melanoma
[35] = tested on: OVCAR-5 ovarian
[36] = tested on: A549 NSCLC
[37] = tested on: COLO 205 colon
[38] = tested on: SN12C renal
[39] = tested on: NCI-H460 lung
[40] = tested on: TK-10 renal
[41] = tested on: HCT-15 colon
[42] = tested on: HT29 colon
[43] = tested on: SK-MEL-2 melanoma
[44] = tested on: SNB-75 CNS
[45] = tested on: K-562 leukemia
[46] = tested on: NCI-H23 lung
[47] = tested on: M14 melanoma
[48] = tested on: RPMI-8226 leukemia
[49] = tested on: NCI-H522 lung
[50] = tested on: A498 renal
[51] = tested on: 786-0 renal
[52] = tested on: ACHN renal
[53] = tested on: SF-539 CNS
[54] = tested on: UO-31 renal
[55] = tested on: MDA-MB-435
[56] = tested on: RXF 393 renal

O=C(c1ccccc1)C(Cl)C(Cl)c1ccccc1 (configuration not stated)
GI50 [1]: 1 µM
TGI [1]: 10.3 µM
GI50 [2]: 3.45 µM
TGI [2]: 14.4 µM
GI50 [3]: 4.71 µM
TGI [3]: 17.3 µM
GI50 [4]: 2.53 µM
TGI [4]: 8.18 µM
GI50 [5]: 2.55 µM
TGI [5]: 6.12 µM
GI50 [6]: 7.61 µM
TGI [6]: 21.7 µM
GI50 [7]: 3.45 µM
TGI [7]: 11.4 µM
GI50 [8]: 1.43 µM
TGI [8]: 2.82 µM
GI50 [9]: 3.76 µM
TGI [9]: 15.1 µM
GI50 [10]: 12.9 µM
TGI [10]: 26 µM
GI50 [11]: 2.17 µM
TGI [11]: 5.35 µM
GI50 [12]: 2.31 µM
TGI [12]: 6.99 µM
GI50 [13]: 3.97 µM
TGI [13]: 14.3 µM
GI50 [14]: 2.44 µM
TGI [14]: 7.35 µM
GI50 [15]: 5.29 µM
TGI [15]: 15.8 µM
GI50 [16]: 3.04 µM
TGI [16]: 8.58 µM
GI50 [17]: 5.24 µM
TGI [17]: 18.9 µM
GI50 [18]: 3.16 µM
TGI [18]: 8.97 µM
GI50 [19]: 1.44 µM
TGI [19]: 2.95 µM
GI50 [20]: 2.03 µM
TGI [20]: 4.57 µM
GI50 [21]: 16.8 µM
TGI [21]: 30.5 µM
GI50 [22]: 2.93 µM
TGI [22]: 10.7 µM
GI50 [23]: 6.85 µM
TGI [23]: 21.2 µM
GI50 [24]: 2.33 µM
TGI [24]: 6.25 µM
GI50 [25]: 2 µM
TGI [25]: 3.56 µM
GI50 [26]: 2.89 µM
TGI [26]: 10.2 µM
GI50 [27]: 0.381 µM
TGI [27]: 7.65 µM
GI50 [28]: 2.74 µM
TGI [28]: 11.3 µM
GI50 [29]: 3.06 µM
TGI [29]: 10.1 µM
GI50 [30]: 1.67 µM
TGI [30]: 6.93 µM
GI50 [31]: 2.47 µM
TGI [31]: 6.46 µM
GI50 [32]: 9.28 µM
TGI [32]: 45.3 µM
GI50 [33]: 1.41 µM
TGI [33]: 3.36 µM
GI50 [34]: 1.69 µM
TGI [34]: 3.69 µM
GI50 [35]: 5.48 µM
TGI [35]: 20.9 µM
GI50 [36]: 18.3 µM
TGI [36]: 34.2 µM
GI50 [37]: 2.06 µM
TGI [37]: 4.26 µM
GI50 [38]: 2.1 µM
TGI [38]: 5.95 µM
GI50 [39]: 6.66 µM
TGI [39]: 22.5 µM
GI50 [40]: 3.14 µM
TGI [40]: 9.12 µM
GI50 [41]: 2.12 µM
TGI [41]: 9.03 µM
GI50 [42]: 2.05 µM
TGI [42]: 4.12 µM
GI50 [43]: 3.55 µM
TGI [43]: 9.33 µM
GI50 [44]: 11.2 µM
TGI [44]: 23.3 µM
GI50 [45]: 2.6 µM
TGI [45]: 10.3 µM
GI50 [46]: 3.27 µM
TGI [46]: 12.8 µM
GI50 [47]: 2.12 µM
TGI [47]: 4.79 µM
GI50 [48]: 2.27 µM
TGI [48]: 7.08 µM
GI50 [49]: 1.7 µM
TGI [49]: 3.42 µM
GI50 [50]: 13.6 µM
TGI [50]: 27.1 µM
GI50 [51]: 1.79 µM
TGI [51]: 3.52 µM
GI50 [52]: 2.21 µM
TGI [52]: 5.23 µM
GI50 [53]: 3.01 µM
TGI [53]: 10.2 µM
GI50 [54]: 1.62 µM
TGI [54]: 3.45 µM
GI50 [55]: 2.26 µM
TGI [55]: 5.56 µM
GI50 [56]: 1.72 µM
TGI [56]: 3.52 µM
